{
  "source": "patent US20260256923A1",
  "about": "“NEW RECRUITMENT ELEMENT OF UBIQUITIN LIGASE AND USE THEREOF” (SHENZHEN LINGGENE BIOTECH CO., LTD., priority 2023, published 2026)",
  "key": {"STAT3": {"target": "STAT3 (Homo sapiens, UniProt P40763)", "sequence (P40763 whole entry)": "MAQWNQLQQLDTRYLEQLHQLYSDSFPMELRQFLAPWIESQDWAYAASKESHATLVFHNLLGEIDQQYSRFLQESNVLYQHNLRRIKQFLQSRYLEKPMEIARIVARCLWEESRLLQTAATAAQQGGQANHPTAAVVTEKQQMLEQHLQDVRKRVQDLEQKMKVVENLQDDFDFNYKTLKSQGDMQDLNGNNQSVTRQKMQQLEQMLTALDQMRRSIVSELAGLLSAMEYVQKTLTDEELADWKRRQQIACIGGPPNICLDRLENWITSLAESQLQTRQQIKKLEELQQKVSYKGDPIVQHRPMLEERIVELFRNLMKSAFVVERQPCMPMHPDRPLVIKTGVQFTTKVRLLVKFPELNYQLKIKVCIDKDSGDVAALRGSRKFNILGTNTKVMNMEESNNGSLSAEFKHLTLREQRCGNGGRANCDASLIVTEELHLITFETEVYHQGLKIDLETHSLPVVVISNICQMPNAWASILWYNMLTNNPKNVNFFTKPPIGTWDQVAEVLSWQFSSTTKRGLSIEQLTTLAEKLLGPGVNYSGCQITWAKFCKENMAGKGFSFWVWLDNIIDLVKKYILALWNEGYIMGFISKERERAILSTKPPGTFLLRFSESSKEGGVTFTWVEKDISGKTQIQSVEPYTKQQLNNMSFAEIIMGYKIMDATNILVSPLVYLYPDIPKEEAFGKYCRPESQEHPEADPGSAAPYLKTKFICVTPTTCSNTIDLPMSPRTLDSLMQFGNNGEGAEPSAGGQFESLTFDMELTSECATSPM", "assay": "STAT3 protein degradation in HOS osteosarcoma cells, western blot", "assay_type": "cell-based", "design": "endogenous in cells", "conditions": "500 nM, 6 h", "description": "HOS osteosarcoma cells were incubated with 500 nM double-stranded transcription factor decoy oligonucleotide S3, AS1411, the first PROTAC product 1411-S3-1, the second PROTAC product 1411-S3-2, or AS1411+double-stranded transcription factor decoy oligonucleotide S3. After 6 h, cell samples were collected for protein extraction and subsequent western blot assay."}, "[1]": {"assay": "G4 structural characteristics, N-methyl mesoporphyrin IX (NMM) fluorescent probe", "assay_type": "physicochemical", "conditions": "1 μM NMM", "description": "Both AS1411 and iSN04 are oligonucleotides specifically binding to NCL. The sequence of AS1411 is SEQ ID NO: 1, and the sequence of iSN04 is SEQ ID NO: 14. AS1411 contains a plurality of GGT motifs, and iSN04 contains one GGT motif. Whether AS1411 and iSN04 have stable G4 structural characteristics was determined. The experimental process was as follows: 5 μM NC (negative control, SEQ ID NO: 15), AS1411, or iSN04 was added to water, and the total volume was 100 μL. The mixture was heated at 95° C. for 7 min and then immediately incubated on ice for 3 min, followed by the addition of 2 μL of N-methyl mesoporphyrin IX (NMM) (purchased from MCE, Cat. No.: HY-133821) to make a final concentration of 1 μM. The resulting mixture was incubated at room temperature for 1 h in the dark. The fluorescence intensity was detected by a microplate reader, with an emission wavelength of 550-700 nm and an excitation wavelength of […].\nGuanine-rich DNA sequences can form more distinct G4 structural characteristics in the presence of metal ions (usually sodium and potassium ions). 5 μM NC (negative control, SEQ ID NO: 15), AS1411, or iSN04 was added to a 100 mM K^+ solution, and the total volume was 100 μL. The mixture was well mixed, heated at 95° C. for 7 min, and then immediately incubated on ice for 3 min, followed by the addition of 2 μL of N-methyl mesoporphyrin IX (NMM) (purchased from MCE, Cat. No.: HY-133821) to make a final concentration of 1 μM. The resulting mixture was incubated at room temperature for 1 h in the dark. The fluorescence intensity was detected by a microplate reader, with an emission wavelength of 550-700 nm and an excitation wavelength of […]."}, "MDM2 [2]": {"target": "MDM2 (Homo sapiens, UniProt Q00987)", "sequence (P19338 whole entry partner)": "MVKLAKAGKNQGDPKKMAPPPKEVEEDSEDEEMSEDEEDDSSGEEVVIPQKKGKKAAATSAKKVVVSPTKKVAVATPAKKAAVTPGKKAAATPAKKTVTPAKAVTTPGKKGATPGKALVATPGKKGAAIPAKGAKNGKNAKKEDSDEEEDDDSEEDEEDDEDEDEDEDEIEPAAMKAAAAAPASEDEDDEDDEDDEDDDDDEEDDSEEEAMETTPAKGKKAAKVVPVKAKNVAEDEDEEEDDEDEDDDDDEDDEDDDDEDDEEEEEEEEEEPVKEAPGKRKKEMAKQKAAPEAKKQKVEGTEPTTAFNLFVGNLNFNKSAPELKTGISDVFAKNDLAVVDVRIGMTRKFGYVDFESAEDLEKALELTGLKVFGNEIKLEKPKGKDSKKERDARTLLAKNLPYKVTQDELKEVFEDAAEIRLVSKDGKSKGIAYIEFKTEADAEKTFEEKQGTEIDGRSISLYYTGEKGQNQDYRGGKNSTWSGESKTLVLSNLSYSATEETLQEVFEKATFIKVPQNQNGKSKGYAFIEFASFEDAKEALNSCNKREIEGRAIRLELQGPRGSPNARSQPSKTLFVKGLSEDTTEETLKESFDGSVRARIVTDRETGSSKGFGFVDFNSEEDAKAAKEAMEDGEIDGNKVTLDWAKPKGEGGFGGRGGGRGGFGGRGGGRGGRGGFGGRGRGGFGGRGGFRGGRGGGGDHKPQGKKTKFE", "sequence (Q00987 whole entry)": "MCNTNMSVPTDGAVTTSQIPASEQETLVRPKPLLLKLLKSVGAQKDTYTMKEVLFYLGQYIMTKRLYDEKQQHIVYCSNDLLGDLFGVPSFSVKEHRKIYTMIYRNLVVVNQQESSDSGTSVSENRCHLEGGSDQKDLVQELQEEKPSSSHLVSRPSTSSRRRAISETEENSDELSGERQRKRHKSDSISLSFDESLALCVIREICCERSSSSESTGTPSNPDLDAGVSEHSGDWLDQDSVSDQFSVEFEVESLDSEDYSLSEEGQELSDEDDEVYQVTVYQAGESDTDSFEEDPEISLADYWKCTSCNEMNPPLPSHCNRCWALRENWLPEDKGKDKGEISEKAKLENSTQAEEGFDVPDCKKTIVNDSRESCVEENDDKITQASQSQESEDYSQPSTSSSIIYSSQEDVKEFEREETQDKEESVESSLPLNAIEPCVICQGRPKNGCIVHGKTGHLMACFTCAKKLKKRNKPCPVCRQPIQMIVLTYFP", "assay": "Biotin-oligonucleotide pull-down with recombinant proteins (MDM2)", "assay_type": "binding", "design": "purchased R&D Systems (MDM2); ACROBiosystems (NCL) E3-202-050 (MDM2); NUL-H5253 (NCL)", "conditions": "400 nM 5′-biotin label, 6 μg/mL NCL + 6 μg/mL MDM2", "description": "6 μg/mL recombinant human NCL and 6 μg/mL recombinant human MDM2 were mixed well and incubated at 4° C. for 7 h. Subsequently, 400 nM CRO, AS1411, or iSN04 labeled by biotin at the 5′ end was added, and the mixture was incubated at 4° C. for 6 h. Streptavidin agarose gel beads (purchased from cytiva, Cat. No.: 17511301) were added, and the mixture was further incubated at 4° C. overnight. The gel beads were washed 4 times with a TBST buffer, and an SDS-PAGE protein loading buffer (purchased from Beyotime, Cat. No.: P0015) was added. The mixture was heated to 100° C. and held for 10 min. After centrifugation, the supernatant was collected. The pull-down product was then detected by western blot assay."}, "MDM2 [3]": {"target": "T1, MDM2 (Homo sapiens, UniProt P19338+Q00987)", "T1 construct": "endogenous in cells; host or cells: A549", "T1 sequence (Q00987 whole entry)": "as above", "T1 sequence (P19338 2-710 limits assumed)": "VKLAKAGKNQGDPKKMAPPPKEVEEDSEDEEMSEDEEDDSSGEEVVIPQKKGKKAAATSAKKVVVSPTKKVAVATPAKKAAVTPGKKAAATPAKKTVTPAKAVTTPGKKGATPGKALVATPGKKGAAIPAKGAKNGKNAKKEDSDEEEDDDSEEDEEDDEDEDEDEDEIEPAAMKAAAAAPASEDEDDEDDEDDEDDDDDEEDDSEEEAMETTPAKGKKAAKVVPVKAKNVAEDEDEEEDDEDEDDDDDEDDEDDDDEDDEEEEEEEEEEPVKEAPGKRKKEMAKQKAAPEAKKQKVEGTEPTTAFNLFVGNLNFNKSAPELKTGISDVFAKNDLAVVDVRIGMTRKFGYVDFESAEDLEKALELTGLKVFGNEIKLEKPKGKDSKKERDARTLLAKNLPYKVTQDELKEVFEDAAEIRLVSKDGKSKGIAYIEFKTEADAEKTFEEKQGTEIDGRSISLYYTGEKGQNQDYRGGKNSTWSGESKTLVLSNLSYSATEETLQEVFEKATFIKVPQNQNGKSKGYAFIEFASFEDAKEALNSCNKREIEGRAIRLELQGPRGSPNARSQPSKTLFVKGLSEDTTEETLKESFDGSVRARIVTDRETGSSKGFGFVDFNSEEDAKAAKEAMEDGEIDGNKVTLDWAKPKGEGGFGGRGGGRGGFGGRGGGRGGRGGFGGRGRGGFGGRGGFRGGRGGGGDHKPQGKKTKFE", "assay": "MDM2 protein degradation in A549 non-small cell lung cancer cells, western blot", "assay_type": "cell-based", "description": "(1) A549 non-small cell lung cancer cells were incubated with 200 nM AS1411-VH032, and corresponding cell samples were collected at time gradients of 0 h, 3 h, 6 h, 9 h, 12 h, and 24 h for protein extraction and subsequent western blot assay to detect protein degradation.\n(2) A549 non-small cell lung cancer cells were incubated with AS1411-VH032 at concentrations of 0 nM, 50 nM, 100 nM, 150 nM, 200 nM, and 250 nM. After 3 h, cell samples were collected for protein extraction and subsequent western blot assay to detect protein degradation.\n(3) A549 non-small cell lung cancer cells were incubated with 200 nM AS1411, VH032, AS1411-VH032, or AS1411+VH032. After 3 h, cell samples were collected for protein extraction and subsequent western blot assay to detect protein degradation.\n(4) A549 non-small cell lung cancer cells were incubated with 200 nM AS1411-VH032 for 3 h, and proteasome inhibitor MG132 was added. Cell samples were collected for protein extraction and subsequent western blot assay.\n(5) A549 non-small cell lung cancer cells were transfected with si-NC or si-NCL and subsequently incubated with 200 nM AS1411-VH032 for 3 h. Cell samples were collected for protein extraction and subsequent western blot assay.\n(1) A549 non-small cell lung cancer cells were incubated with 1000 nM AS1411-AS1411, and corresponding cell samples were collected at time gradients of 0 h, 3 h, 6 h, 9 h, 12 h, and 24 h for protein extraction and subsequent western blot assay to detect protein degradation.\n(2) A549 non-small cell lung cancer cells were incubated with AS1411-AS1411 at concentrations of 0 nM, 50 nM, 100 nM, 250 nM, 500 nM, and 1000 nM. After 12 h, cell samples were collected for protein extraction and subsequent western blot assay to detect protein degradation.\n(3) A549 non-small cell lung cancer cells were incubated with 1000 nM AS1411, AS1411-AS1411, or AS1411+AS1411. After 12 h, cell samples were collected for protein extraction and subsequent western blot assay to detect protein degradation. […]"}},
  "data": [
    {"substance": "AS1411: DNA aptamer, GRO binding NCL, SEQ ID NO: 1: 5′-GGTGGTGGTGGTTGTGGTGGTGGTGG-3′", "values": [
      {"measurement": "protein level of STAT3", "setting": "STAT3", "value": "only the first PROTAC product 1411-S3-1 and the second PROTAC product 1411-S3-2 can reduce the protein level of transcription factor STAT3"},
      {"measurement": "G4 structural characteristics (fluorescence signal intensity)", "setting": "[1]; 5 μM in 100 mM K+ solution", "value": "over 10000"},
      {"measurement": "G4 structural characteristics (fluorescence signal intensity)", "setting": "[1]; 5 μM in water (no K+)", "value": "over 4000"},
      {"measurement": "binding / recruitment of MDM2", "setting": "MDM2 [2]", "value": "recruits MDM2 in large amounts depending on its interaction with NCL"},
      {"measurement": "protein level of MDM2", "setting": "MDM2 [3]; A549, 200 nM, 3 h", "value": "neither AS1411, VH032, nor AS1411+VH032 can reduce the protein level of MDM2"},
      {"measurement": "protein level of MDM2", "setting": "MDM2 [3]; A549, 1000 nM, 12 h", "value": "neither AS1411 nor AS1411+AS1411 can reduce the protein level of MDM2"}
    ]}
  ]
}
